# Source: publication PMC9108603, “Microbial Metabolite Inspired β‐Peptide Polymers Displaying Potent and Selective Antifungal Activity” (Advanced Science, 2022)
# Like-named read-outs stand apart in the source and are kept apart here.
# What was measured:
# [1] = system: C. albicans and C. neoformans; assay: MIC/MFC, summary over all fungal strains; assay type: cell-based, Candida albicans, Cryptococcus neoformans
# Method: (§1) In vitro antifungal assays. The MIC assays for C. albicans (K1, SC5314, Gu5, ATCC90028, R01, R02, R03 and R04 strains) and C. neoformans (H99, MYA737 and JEC21 strains) were conducted according to a previously described protocol. The cultured fungal cells were collected at 2.5 × 10^3 CFU/mL in RPMI 1640 medium to give the working suspension. Two- […]
# (§2) plate to give 50 µL compound solution in each well. Then 50 µL of the cell suspension was added to each well. Wells containing cells in RPMI without any polymer or antifungal drug were used as drug-free controls, and wells containing RPMI medium only were used as cell-free controls. The plate was gently stirred for 10 seconds and then incubated at 30 °C. After C. albicans and C. neoformans cells were incubated for 24 h and 48 h, respectively, fungal cell growth was checked visually. The MIC values were identified as the lowest concentration […]
# C. albicans . The MFC assay for Candida and Cryptococcus was conducted after the MIC test.
# An aliquot of 3 µL premixed suspension from each well was plated on the yeast extract-peptone-dextrose (YPD) agar. The plates were incubated at 30 °C for 24 h and 48 h, respectively, for C. albicans cells and C. neoformans cells. Then the plate was inspected visually for colony formation. […]
# ICR mice = assay: In vivo acute toxicity, single IV injection
# Method: In vivo acute toxicity. All animal procedures were performed in accordance with the
# Guidelines for Care and Use of Laboratory Animals of the Shanghai Tenth People’s Hospital
# (License number: SYXK( 沪)-2021-0012), and experiments were approved by the Animal
# Ethics Committee of the Shanghai Tenth People’s Hospital, Tongji University School of
# was performed on 6-weeks old female ICR mice (n = 10) using the previously reported
# prepared in DMSO and further diluted into sterile saline to a final concentration of 0.3 mg/mL
# and 3 mg/kg, respectively, and mice injected with saline were used as controls. After a single
# injection, all survival mice were weighed daily for 14 days. The organs (kidney, liver, and
# spleen) (n = 2) and blood of mice treated by PDAP 20 or saline (n = 8) were collected on the
# C. albicans SC5314 = assay: Biofilm-induced fungal keratitis model; assay type: in vivo, mouse (male BALB/c); conditions: 10 μL every 5 min for 1 h, then every 30 min for 7 h, versus saline, n = 10
# Method: Medicine (Accreditation number of the laboratory: SHDSYY-2021-1729). The experiment […]
# method. […] AmpB was
# (2.5% DMSO in final solution).
# The organs (kidney, liver, and
# 14th day for histological analysis and blood biochemistry analysis.
# 30 min during the next 7 h.
# C. albicans biofilm formation on contact lenses. The contact lenses (Biomedic ®, Cooper […]
# Then the discs were transferred to a […]
# and incubated at rt with shaking at 100 rpm. After 6 hours of incubation, the suspension was […]
# addition of 150 μL fresh RPMI medium into each well. […]
# All mice were killed and the eyeballs of each mouse were collected immediately 30 min after the administration of the last eye drop. Ten eyeballs from each group were homogenized for quantitative analysis of fungal counts with the number of CFUs expressed as mean log (CFU per eye), and the remaining four eyeballs were collected for histological analysis. […]
# After incubation for 24 h at 30 °C, the colonies were counted and the number of CFUs was […]
# expressed as mean log 10 (CFU per eye). […]
# Statistical Analysis. […] Significance between two groups was determined by two-tailed t-test. […] All results were expressed as mean values ± s.d. n = 3 for each in vitro statistical analysis. n = 8 or 10 for each in vivo statistical analysis. […]
# C. albicans = assay: MIC assay (in vitro antifungal assay); assay type: cell-based, Candida albicans; conditions: for MIC: Candida albicans
# Method: as §1
# as §2, with “Then” for “plate to give 50 µL compound solution in each well. Then”, “visually.” for “visually. The MIC values were identified as the lowest concentration”
compound,measurement,setting,value
"C[C@@H]1[C@H](O)[C@@H](C)/C=C/C=C/C=C/C=C/C=C/C=C/C=C/[C@H](O[C@@H]2O[C@H](C)[C@@H](O)[C@H](N)[C@@H]2O)C[C@@H]2O[C@](O)(C[C@@H](O)C[C@@H](O)[C@H](O)CC[C@@H](O)C[C@@H](O)CC(=O)O[C@H]1C)C[C@H](O)[C@H]2C(=O)O [AmpB, amphotericin B]",MIC against all strains of C. albicans and C. neoformans (range),[1],1.2 to 3.1 µg/mL
same,Mice died within 48 h,"ICR mice; single IV dose of 3 mg kg^−1, ICR mice, n = 10",90%
same,"Reduction of colonies, log CFU per eye",C. albicans SC5314; AmpB 1 mg mL^−1 eye drops,1.8 log CFU per eye
same,MIC,"C. albicans; 24 h, read-out: MIC C. albicans R01",1.2 µg/mL
same,MIC,"C. albicans; 24 h, read-out: MIC C. albicans R04",1.6 µg/mL
same,MIC,"C. albicans; ATCC90028, 24 h, read-out: MIC C. albicans ATCC90028",1.6 µg/mL
same,MIC,"C. albicans; SC5314, 24 h, read-out: MIC C. albicans SC5314",1.6 µg/mL
poly(DL‐diaminopropionic acid) [PDAP20],MIC against all strains of C. albicans and C. neoformans (range),[1],0.1 to 0.8 µg/mL
same,Survival after IV injection,"ICR mice; single IV dose of 100 mg kg^−1, ICR mice, n = 10, 14 days",all mice survived
same,Body weight,"ICR mice; single IV dose of 100 mg kg^−1, daily for 14 days, n = 10",normal body weight compared to the saline group
same,"H&E histology of kidney, liver and spleen","ICR mice; single IV dose of 100 mg kg^−1, day 14, n = 2",no obvious toxicity on major organs
same,"Blood biochemistry (K+, Na+, ALT, AST, BUN, CREA)","ICR mice; single IV dose of 100 mg kg^−1, day 14, n = 8",did not cause significant changes in blood biochemical indicators
same,"Reduction of colonies, log CFU per eye",C. albicans SC5314; PDAP20 15 mg mL^−1 eye drops,1.2 log CFU per eye
same,MIC at high fungal cell concentration (TEM conditions),"C. albicans; 1.0 × 10^8 CFU mL^−1, fungal species not stated at the place",50 µg/mL
same,MIC at high fungal cell concentration (other mechanism experiments),"C. albicans; 3.0 × 10^6 CFU mL^−1, fungal species not stated at the place",12.5 µg/mL
same,Effect of increasing K+ on antifungal activity,"C. albicans; K+ up to 20 × 10^−3 M, C. albicans K1",didn't affect
same,"MIC C. albicans K1, standard MIC test in RPMI 1640","C. albicans; Na+ 103 mM, K+ 5.4 mM",0.8 µg/mL
same,"MIC C. albicans K1, K+ ↑","C. albicans; Na+ 103 mM, K+ 10 mM",0.8 µg/mL
same,"MIC C. albicans K1, K+ ↑","C. albicans; Na+ 103 mM, K+ 20 mM",0.8 µg/mL
same,"MIC C. albicans K1, physiological salt concentration","C. albicans; Na+ 150 mM, K+ 5.4 mM",1.6 μg/mL
same,"MIC C. albicans K1, Na+ ↑","C. albicans; Na+ 200 mM, K+ 5.4 mM",3.1 µg/mL
same,"MIC C. albicans K1, Na+ ↑","C. albicans; Na+ 300 mM, K+ 5.4 mM",6.3 µg/mL
same,"MIC C. albicans K1, Na+ ↑, K+ ↑","C. albicans; Na+ 300 mM, K+ 20 mM",6.3 µg/mL
same,MIC C. albicans K1 on increase of Na+ (range),C. albicans; Na+ from 150 × 10^−3 to 300 × 10^−3 M,1.6 to 6.3 µg/mL
